Assay results: ChEMBL document CHEMBL4507276 (2021)

What was measured:
[1] = target: T1, Homeodomain-interacting protein kinase 4 (Homo sapiens) (UniProt Q8NE63); assay: HIPK4 Invitrogen selectivity data (BI); settings: Compound concentration 3.0 uM
T1 sequence (whole entry): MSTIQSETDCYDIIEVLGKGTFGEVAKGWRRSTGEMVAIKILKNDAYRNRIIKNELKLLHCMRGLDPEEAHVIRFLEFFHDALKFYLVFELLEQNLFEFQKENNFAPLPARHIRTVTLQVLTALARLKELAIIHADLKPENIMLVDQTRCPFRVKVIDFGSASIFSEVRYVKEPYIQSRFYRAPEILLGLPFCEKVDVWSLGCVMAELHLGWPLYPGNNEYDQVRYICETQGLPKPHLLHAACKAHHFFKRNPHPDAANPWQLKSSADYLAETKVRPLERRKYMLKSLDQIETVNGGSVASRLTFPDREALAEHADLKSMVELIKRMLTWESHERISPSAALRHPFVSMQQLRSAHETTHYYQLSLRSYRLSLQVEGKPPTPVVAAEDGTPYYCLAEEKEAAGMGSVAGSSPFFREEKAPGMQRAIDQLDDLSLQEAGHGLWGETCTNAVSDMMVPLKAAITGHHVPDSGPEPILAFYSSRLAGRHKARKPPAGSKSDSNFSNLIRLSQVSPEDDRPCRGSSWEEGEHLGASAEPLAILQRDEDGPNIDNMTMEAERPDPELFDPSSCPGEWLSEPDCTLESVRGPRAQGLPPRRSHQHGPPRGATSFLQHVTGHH

[2] = target: Phosphatidylinositol 4,5-bisphosphate 3-kinase catalytic subunit gamma isoform (Homo sapiens) (UniProt P48736); assay: PIK3CG Invitrogen selectivity data (BI); settings: Compound concentration 3.0 uM
[3] = target: Rod cGMP-specific 3',5'-cyclic phosphodiesterase subunit alpha (Bos taurus) (UniProt P11541); assay: PDE6_CE Cerep selectivity data (BI); settings: Compound concentration 20.0 uM
[4] = target: Glutamate receptor ionotropic, kainate 1 (Rattus norvegicus) (UniProt P22756); assay: KAINATE/RA Cerep selectivity data (BI); settings: Compound concentration 20.0 uM
[5] = target: Neuropeptide Y receptor type 1 (Homo sapiens) (UniProt P25929); assay: Y1/HU Eurofins-Panlabs selectivity data (BI); settings: Compound concentration 10.0 uM
[6] = target: Corticotropin-releasing factor receptor 1 (Homo sapiens) (UniProt P34998); assay: CRF1/H Cerep selectivity data (BI); settings: Compound concentration 20.0 uM
[7] = target: P2Y purinoceptor 1 (Rattus norvegicus) (UniProt P49651); assay: P2Y/RAT Eurofins-Panlabs selectivity data (BI); settings: Compound concentration 10.0 uM
[8] = target: Leukotriene B4 receptor 1 (Homo sapiens) (UniProt Q15722); assay: BLT1/H Cerep selectivity data (BI); settings: Compound concentration 20.0 uM
[9] = target: Vasopressin V1a receptor (Homo sapiens) (UniProt P37288); assay: V1A/HUM Cerep selectivity data (BI); settings: Compound concentration 20.0 uM
[10] = target: Misshapen-like kinase 1 (Homo sapiens) (UniProt Q8N4C8); assay: MINK1 Invitrogen selectivity data (BI); settings: Compound concentration 3.0 uM
[11] = target: Serine/threonine-protein kinase Nek7 (Homo sapiens) (UniProt Q8TDX7); assay: NEK7 Invitrogen selectivity data (BI); settings: Compound concentration 3.0 uM
[12] = target: Prostaglandin G/H synthase 1 (Homo sapiens) (UniProt P23219); assay: COX1_HU Cerep selectivity data (BI); settings: Compound concentration 20.0 uM
[13] = target: Platelet-activating factor receptor (Homo sapiens) (UniProt P25105); assay: PAF/H Eurofins-Panlabs selectivity data (BI); settings: Compound concentration 10.0 uM
[14] = system: Platelet-derived growth factor receptor alpha (Homo sapiens), P16234 [V561D]; assay: PDGFRA V561D Invitrogen selectivity data (BI); settings: Compound concentration 3.0 uM
[15] = target: Serine/threonine-protein kinase MRCK beta (Homo sapiens) (UniProt Q9Y5S2); assay: CDC42 BPB Invitrogen selectivity data (BI); settings: Compound concentration 3.0 uM
[16] = target: Serine/threonine-protein kinase Nek6 (Homo sapiens) (UniProt Q9HC98); assay: NEK6 Invitrogen selectivity data (BI); settings: Compound concentration 3.0 uM
[17] = target: Proto-oncogene tyrosine-protein kinase ROS (Homo sapiens) (UniProt P08922); assay: ROS1 Invitrogen selectivity data (BI); settings: Compound concentration 3.0 uM
[18] = target: Bone morphogenetic protein receptor type-1A (Homo sapiens) (UniProt P36894); assay: BMPR1A(ALK3) Invitrogen selectivity data (BI); settings: Compound concentration 3.0 uM
[19] = target: Phosphatidylinositol 4-kinase beta (Homo sapiens) (UniProt Q9UBF8); assay: PI4KB Invitrogen selectivity data (BI); settings: Compound concentration 3.0 uM
[20] = target: Sodium-dependent dopamine transporter (Homo sapiens, UniProt Q01959); assay: DATRANS/HUM Cerep selectivity data (BI); settings: Compound concentration 20.0 uM
[21] = target: Dual specificity protein kinase CLK1 (Homo sapiens) (UniProt P49759); assay: CLK1 Invitrogen selectivity data (BI); settings: Compound concentration 3.0 uM
[22] = system: Epidermal growth factor receptor (Homo sapiens), P00533 [T790M]; assay: EGFR T790M Invitrogen selectivity data (BI); settings: Compound concentration 3.0 uM
[23] = target: D(3) dopamine receptor (Homo sapiens) (UniProt P35462); assay: D3/HU Eurofins-Panlabs selectivity data (BI); settings: Compound concentration 10.0 uM
[24] = target: Thyroid hormone receptor alpha (Rattus norvegicus) (UniProt P63059); assay: THYROID HORM Eurofins-Panlabs selectivity data (BI); settings: Compound concentration 10.0 uM
[25] = target: Protein-tyrosine kinase 2-beta (Homo sapiens) (UniProt Q14289); assay: PTK2B Invitrogen selectivity data (BI); settings: Compound concentration 3.0 uM
[26] = target: Tyrosine-protein kinase JAK2 (Homo sapiens) (UniProt O60674); assay: JAK2 Invitrogen selectivity data (BI); settings: Compound concentration 3.0 uM
[27] = target: T2, Mitogen-activated protein kinase kinase kinase 3 (Homo sapiens) (UniProt Q99759); assay: MAP3K3 Invitrogen selectivity data (BI); settings: Compound concentration 3.0 uM
T2 sequence (whole entry): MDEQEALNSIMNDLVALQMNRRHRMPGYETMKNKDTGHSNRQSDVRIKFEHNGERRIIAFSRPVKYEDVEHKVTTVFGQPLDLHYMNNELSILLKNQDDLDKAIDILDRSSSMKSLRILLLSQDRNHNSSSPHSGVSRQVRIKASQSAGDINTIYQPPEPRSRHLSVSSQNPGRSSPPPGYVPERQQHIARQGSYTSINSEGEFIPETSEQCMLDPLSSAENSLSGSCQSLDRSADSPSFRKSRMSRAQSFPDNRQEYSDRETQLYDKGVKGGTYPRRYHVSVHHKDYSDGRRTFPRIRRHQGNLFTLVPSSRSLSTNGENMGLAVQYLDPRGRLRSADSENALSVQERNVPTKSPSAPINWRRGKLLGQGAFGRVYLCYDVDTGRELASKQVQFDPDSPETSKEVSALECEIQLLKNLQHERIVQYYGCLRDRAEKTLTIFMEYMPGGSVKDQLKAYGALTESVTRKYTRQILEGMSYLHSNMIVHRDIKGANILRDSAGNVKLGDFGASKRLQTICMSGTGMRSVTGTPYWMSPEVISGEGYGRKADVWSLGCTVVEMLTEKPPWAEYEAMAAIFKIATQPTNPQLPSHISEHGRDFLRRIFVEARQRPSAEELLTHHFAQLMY

[28] = target: Leucine-rich repeat serine/threonine-protein kinase 2 (Homo sapiens) (UniProt Q5S007); assay: LRRK2 Invitrogen selectivity data (BI); settings: Compound concentration 3.0 uM
[29] = target: RAC-alpha serine/threonine-protein kinase (Homo sapiens) (UniProt P31749); assay: AKT1 Invitrogen selectivity data (BI); settings: Compound concentration 3.0 uM
[30] = target: Maternal embryonic leucine zipper kinase (Homo sapiens) (UniProt Q14680); assay: MELK Invitrogen selectivity data (BI); settings: Compound concentration 3.0 uM

Measured: residual activity

Thyroid hormone receptor alpha (Rattus norvegicus), sequence (P63059 whole entry): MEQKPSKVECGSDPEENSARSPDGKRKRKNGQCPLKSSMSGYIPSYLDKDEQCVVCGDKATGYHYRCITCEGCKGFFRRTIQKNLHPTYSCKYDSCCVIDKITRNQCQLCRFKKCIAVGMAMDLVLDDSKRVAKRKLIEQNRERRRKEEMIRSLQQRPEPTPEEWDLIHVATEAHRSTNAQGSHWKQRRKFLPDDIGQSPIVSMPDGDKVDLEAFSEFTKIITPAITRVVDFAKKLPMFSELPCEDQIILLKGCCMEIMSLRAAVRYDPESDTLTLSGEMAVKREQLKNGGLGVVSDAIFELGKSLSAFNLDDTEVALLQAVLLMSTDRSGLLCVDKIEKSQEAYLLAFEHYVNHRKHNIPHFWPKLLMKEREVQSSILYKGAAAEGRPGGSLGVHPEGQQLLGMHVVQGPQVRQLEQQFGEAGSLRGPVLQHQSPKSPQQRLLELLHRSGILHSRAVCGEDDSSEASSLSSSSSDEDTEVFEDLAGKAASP
Serine/threonine-protein kinase Nek7 (Homo sapiens), sequence (Q8TDX7 whole entry, looked up): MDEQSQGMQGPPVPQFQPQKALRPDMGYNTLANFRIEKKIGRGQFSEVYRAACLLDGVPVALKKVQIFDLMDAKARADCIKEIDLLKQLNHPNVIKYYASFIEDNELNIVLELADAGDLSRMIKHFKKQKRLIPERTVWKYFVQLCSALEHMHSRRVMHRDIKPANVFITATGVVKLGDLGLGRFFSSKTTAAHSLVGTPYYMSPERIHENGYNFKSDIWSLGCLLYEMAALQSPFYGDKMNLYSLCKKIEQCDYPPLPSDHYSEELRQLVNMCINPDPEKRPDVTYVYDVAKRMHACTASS
Vasopressin V1a receptor (Homo sapiens), sequence (P37288 whole entry, looked up): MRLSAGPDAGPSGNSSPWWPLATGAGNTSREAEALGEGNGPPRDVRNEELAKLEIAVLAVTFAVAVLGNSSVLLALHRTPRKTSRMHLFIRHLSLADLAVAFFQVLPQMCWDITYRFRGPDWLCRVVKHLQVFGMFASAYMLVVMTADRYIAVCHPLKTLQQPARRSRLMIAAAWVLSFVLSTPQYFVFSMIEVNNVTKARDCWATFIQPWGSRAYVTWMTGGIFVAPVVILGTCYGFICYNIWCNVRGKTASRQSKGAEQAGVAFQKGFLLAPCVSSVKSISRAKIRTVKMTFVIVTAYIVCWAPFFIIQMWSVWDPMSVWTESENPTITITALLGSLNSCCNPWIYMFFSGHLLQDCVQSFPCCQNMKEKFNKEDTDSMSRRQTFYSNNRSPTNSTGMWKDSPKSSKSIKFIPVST
Platelet-derived growth factor receptor alpha (Homo sapiens), P16234 [V561D], sequence (P16234 whole entry V561D): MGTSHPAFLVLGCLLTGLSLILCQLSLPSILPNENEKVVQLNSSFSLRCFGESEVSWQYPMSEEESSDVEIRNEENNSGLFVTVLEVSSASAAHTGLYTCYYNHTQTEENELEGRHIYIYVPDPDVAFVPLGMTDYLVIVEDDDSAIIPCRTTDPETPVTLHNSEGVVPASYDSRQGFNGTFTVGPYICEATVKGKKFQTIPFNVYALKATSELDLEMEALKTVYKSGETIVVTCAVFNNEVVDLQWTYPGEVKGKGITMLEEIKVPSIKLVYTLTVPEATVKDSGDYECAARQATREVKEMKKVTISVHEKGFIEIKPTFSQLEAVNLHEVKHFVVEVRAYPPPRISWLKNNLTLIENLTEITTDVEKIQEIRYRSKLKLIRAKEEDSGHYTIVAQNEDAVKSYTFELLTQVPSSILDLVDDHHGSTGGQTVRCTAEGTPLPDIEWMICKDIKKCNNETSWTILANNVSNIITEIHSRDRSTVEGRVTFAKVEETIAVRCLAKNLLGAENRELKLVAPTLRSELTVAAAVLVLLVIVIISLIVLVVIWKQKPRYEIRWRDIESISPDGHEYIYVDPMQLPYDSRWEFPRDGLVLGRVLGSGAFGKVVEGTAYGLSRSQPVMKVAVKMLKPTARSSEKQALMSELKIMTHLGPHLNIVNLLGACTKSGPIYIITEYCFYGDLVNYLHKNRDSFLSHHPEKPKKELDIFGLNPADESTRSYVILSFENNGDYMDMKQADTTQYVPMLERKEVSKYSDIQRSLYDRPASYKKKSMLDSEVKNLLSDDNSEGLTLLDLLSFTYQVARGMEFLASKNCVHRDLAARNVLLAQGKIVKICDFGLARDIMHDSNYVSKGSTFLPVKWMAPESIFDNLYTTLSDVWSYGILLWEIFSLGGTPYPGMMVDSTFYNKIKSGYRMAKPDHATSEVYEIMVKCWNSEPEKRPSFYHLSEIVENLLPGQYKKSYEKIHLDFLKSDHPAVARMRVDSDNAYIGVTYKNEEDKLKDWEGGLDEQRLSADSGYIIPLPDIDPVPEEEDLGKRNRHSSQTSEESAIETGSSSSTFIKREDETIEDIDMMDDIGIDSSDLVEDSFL
Leukotriene B4 receptor 1 (Homo sapiens), sequence (Q15722 whole entry): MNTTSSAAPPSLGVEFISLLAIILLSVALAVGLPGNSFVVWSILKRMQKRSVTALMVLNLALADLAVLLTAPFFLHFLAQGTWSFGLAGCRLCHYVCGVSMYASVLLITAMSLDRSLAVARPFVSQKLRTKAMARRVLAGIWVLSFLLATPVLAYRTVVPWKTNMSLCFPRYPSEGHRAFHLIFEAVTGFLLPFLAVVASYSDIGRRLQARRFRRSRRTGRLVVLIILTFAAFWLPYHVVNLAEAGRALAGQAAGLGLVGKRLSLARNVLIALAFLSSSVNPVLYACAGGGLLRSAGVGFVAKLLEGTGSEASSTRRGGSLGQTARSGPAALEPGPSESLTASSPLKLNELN
Sodium-dependent dopamine transporter, sequence (Q01959 whole entry): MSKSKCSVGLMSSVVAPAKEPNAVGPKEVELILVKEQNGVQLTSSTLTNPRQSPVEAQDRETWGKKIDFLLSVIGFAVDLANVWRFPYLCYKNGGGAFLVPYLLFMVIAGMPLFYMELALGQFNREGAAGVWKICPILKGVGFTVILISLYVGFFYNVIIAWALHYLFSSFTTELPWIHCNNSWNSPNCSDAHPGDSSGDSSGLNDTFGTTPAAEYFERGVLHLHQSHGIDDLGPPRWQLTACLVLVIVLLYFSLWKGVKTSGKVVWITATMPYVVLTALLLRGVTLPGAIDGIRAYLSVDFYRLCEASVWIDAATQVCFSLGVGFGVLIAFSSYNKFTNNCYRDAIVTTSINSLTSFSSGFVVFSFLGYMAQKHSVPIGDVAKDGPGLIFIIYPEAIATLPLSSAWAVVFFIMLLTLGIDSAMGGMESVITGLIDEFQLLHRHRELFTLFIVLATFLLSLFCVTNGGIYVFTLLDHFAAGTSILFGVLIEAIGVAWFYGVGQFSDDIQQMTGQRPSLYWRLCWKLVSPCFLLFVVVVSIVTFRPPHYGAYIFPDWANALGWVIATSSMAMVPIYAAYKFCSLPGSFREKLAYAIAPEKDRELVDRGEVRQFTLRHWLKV
Neuropeptide Y receptor type 1 (Homo sapiens), sequence (P25929 whole entry): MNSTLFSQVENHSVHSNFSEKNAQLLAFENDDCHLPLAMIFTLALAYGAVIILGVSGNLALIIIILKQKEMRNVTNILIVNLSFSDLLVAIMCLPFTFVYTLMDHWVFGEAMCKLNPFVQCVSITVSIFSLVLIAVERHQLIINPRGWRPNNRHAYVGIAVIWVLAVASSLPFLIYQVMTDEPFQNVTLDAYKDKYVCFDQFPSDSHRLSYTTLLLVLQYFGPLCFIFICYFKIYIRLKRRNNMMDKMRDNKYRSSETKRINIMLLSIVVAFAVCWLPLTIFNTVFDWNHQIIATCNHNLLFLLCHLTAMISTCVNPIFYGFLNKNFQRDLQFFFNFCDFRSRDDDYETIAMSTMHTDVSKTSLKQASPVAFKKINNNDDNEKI
Rod cGMP-specific 3',5'-cyclic phosphodiesterase subunit alpha (Bos taurus), sequence (P11541 whole entry): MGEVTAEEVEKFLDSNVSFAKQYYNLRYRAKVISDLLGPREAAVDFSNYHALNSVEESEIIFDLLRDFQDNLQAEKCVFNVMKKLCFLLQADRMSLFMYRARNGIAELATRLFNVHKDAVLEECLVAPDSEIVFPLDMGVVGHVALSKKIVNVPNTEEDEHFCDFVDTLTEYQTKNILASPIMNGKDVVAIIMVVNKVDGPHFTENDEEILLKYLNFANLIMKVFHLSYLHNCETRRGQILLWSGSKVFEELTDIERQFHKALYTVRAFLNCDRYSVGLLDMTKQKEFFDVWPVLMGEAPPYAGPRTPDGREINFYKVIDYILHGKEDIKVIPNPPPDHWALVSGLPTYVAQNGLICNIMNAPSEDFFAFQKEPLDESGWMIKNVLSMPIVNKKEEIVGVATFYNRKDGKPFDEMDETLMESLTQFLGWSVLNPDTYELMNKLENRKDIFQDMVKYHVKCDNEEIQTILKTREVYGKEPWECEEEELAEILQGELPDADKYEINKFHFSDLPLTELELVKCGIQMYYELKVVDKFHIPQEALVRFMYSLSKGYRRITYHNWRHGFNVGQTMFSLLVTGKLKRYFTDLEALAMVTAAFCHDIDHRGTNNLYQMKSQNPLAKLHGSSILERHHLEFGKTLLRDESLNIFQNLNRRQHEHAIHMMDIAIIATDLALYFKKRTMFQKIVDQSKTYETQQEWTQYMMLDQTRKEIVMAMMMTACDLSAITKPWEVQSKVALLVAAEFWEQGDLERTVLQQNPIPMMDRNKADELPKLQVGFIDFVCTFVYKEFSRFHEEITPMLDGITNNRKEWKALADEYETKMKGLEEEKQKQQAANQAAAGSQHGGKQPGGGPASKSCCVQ
D(3) dopamine receptor (Homo sapiens), sequence (P35462 whole entry): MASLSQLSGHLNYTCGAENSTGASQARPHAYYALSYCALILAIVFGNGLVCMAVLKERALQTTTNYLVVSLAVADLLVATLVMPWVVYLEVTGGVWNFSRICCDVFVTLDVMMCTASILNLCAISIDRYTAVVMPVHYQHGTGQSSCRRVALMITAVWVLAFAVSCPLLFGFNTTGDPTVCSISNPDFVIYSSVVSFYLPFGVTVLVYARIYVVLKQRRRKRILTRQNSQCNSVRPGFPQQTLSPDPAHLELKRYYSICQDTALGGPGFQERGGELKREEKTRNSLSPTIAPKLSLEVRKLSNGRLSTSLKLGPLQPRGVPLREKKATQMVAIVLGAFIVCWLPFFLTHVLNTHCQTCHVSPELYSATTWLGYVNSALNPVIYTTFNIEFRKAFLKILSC

CN(C)C(=O)Cn1cc(-c2nc([C@@](C)(c3ccc(-c4cnc(N)nc4)cc3)C3CC3)no2)cn1 [BI 665915]
inactive: [1] 98.5% | [2] 104% | [3] 101% | [4] 82% | [5] 109% | [6] 148% | [7] 95% | [8] 100% | [9] 50% | [10] 93% | [11] 99% | [12] 62% | [13] 71% | [14] 85% | [15] 94% | [16] 96% | [17] 97.5% | [18] 87% | [19] 95% | [20] 87% | [21] 96.5% | [22] 104% | [23] 97% | [24] 80% | [25] 86% | [26] 91% | [27] 101% | [28] 96% | [29] 99% | [30] 94%
